# Experimental data as given in US10683292B2, “Purine and 3-deazapurine analogues as choline kinase inhibitors” (NERVIANO MEDICAL SCIENCES S.R.L., priority 2016, dated 2020).
# Like-named read-outs stand apart in the source and are kept apart here.
# What was measured:
# Δ49N-hChoKα = molecular target: T1, Δ49N-hChoKα (Homo sapiens, UniProt P35790); test: Biochemical kinase inhibition assay (Kinase-Glo Luminescent Kinase Assay) on Δ49N-hChoKα
# T1 construct: cDNA fragment 362-1534, corresponding to aminoacids 50-457; GST (N, cleaved yes); Prescission Protease recognition site (N, cleaved yes); made in house; host or cells: Escherichia coli BL21pLysS (DE3)
# T1 sequence (P35790 50-457, stated change not applied): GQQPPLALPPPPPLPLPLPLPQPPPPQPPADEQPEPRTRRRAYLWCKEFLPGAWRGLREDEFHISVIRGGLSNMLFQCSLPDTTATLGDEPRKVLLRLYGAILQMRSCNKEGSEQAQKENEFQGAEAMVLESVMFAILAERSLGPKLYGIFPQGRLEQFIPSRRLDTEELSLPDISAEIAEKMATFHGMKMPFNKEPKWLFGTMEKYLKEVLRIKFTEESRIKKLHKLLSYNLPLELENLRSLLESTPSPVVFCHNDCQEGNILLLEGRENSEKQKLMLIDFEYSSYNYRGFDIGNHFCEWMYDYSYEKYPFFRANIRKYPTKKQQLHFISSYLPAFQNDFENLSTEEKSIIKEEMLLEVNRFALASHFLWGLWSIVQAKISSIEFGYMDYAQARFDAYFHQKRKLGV
# Description: (§1) The biochemical activity of compounds against Δ49N-ChoKα and ChoKβ FL were determined using the Kinase-Glo™ Luminescent Kinase Assay (Promega cat. V6711).
# (§2) Compounds were 3-fold serially diluted from 10 to 0.0005 μM, then incubated for 60 minutes at rt in the presence of ATP 5 μM, choline (5 μM for ChoKα and 20 μM for ChoKβ) and enzyme in a final volume of 19 μL of kinase buffer (50 mM Hepes pH 7.5, 10 mM MgCl2, 1 mM DTT, 3 μM Na3VO4 and 0.2 mg/mL BSA). The final concentration of DMSO was 1%.
# (§3) At the end of the incubation, an amount of 19 μL of KinaseGlo Reagent was added to each well to stop the reaction and after 30 minutes the luminescence signal was measured using ViewLux reader (Perkin Elmer).
# (§4) The data per each molecule are analyzed by an internally customized version of the SW package “Assay Explorer” which provides sigmoidal fittings of the ten-dilution curves for IC50 determination using a 4 parameter logistic equation: y=bottom+(top−bottom)/(1+10^((log IC50−x)*slope)) where x is the logarithm of the inhibitor concentration, y is the response; y starts at bottom and goes to top with a sigmoid shape.
# hChoKβ FL = molecular target: T2, hChoKβ FL (Homo sapiens, UniProt Q9Y259); test: Biochemical kinase inhibition assay (Kinase-Glo Luminescent Kinase Assay) on hChoKβ FL; conditions: ATP 5 μM, choline 20 μM, 60 minutes at rt; read-out: IC50 ChoKβ
# T2 construct: hChoKβ full length (FL), corresponding to aminoacids 2-395; GST (N, cleaved yes); Prescission Protease recognition site (N, cleaved yes); made in house; host or cells: Escherichia coli BL21pLysS (DE3)
# T2 sequence (Q9Y259 2-395): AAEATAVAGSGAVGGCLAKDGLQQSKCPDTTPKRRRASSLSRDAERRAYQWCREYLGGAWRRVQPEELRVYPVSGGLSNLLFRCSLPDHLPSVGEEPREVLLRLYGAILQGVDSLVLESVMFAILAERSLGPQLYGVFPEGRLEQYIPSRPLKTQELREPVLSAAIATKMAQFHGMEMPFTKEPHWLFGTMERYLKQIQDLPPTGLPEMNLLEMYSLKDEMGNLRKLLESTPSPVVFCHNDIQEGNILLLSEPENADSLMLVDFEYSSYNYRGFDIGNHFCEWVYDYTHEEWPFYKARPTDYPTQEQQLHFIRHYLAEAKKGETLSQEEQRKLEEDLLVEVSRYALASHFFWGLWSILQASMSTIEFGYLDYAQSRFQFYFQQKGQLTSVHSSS
# Description: as §1, §2, §3, §4
# [1] = ATP 5 μM, choline 5 μM, 60 minutes at rt, read-out: IC50 ChoKα
SMILES,IC50 (Δ49N-hChoKα; [1]) [nM],IC50 (hChoKβ FL) [nM],IC50 (Δ49N-hChoKα) [nM]
"COc1cccc(C(=O)N[C@H]2CC[C@@H](n3cnc4c(N)nc(Cl)nc43)CC2)c1 [cpd 144, N-[cis-4-(6-amino-2-chloro-9H-purin-9-yl)cyclohexyl]-3-methoxybenzamide]",341,> 10000,
"COc1cccc(NC(=O)[C@H]2CC[C@@H](n3cnc4c(N)nc(C5CC5)nc43)CC2)c1 [cpd 87, cis-4-(6-amino-2-cyclopropyl-9H-purin-9-yl)-N-(3-methoxyphenyl)cyclohexanecarboxamide]",974,> 10000,
"CN1CCN(Cc2ccc(NC(=O)Cc3ccc(NC(=O)[C@H]4CC[C@@H](n5cnc6c(N)nc(Cl)nc65)CC4)cc3)cc2C(F)(F)F)CC1 [cpd 35, cis-4-(6-amino-2-chloro-9H-purin-9-yl)-N-{4-[2-({4-[(4-methylpiperazin-1-yl)methyl]-3-(trifluoromethyl)phenyl}amino)-2-oxoethyl]phenyl}cyclohexanecarboxamide]",13,430,
"Nc1nc(Cl)nc2c1ncn2[C@H]1CC[C@@H](C(=O)Nc2nc(CN3CCC(N)CC3)cs2)CC1 [cpd 120, cis-4-(6-amino-2-chloro-9H-purin-9-yl)-N-{4-[(4-aminopiperidin-1-yl)methyl]-1,3-thiazol-2-yl}cyclohexanecarboxamide]",40,> 10000,
"COc1cccc(NC(=O)[C@H]2CC[C@@H](n3cnc4c(N)nc(-c5ccc(C(=O)Nc6ccc(CN7CCN(C)CC7)cc6)cc5)nc43)CC2)c1 [cpd 29, 4-(6-amino-9-{cis-4-[(3-methoxyphenyl)carbamoyl]cyclohexyl}-9H-purin-2-yl)-N-{4-[(4-methylpiperazin-1-yl)methyl]phenyl}benzamide]",257,1880,
"Nc1nc(F)nc2c1ncn2[C@H]1CC[C@@H](C(=O)Nc2nc3c(s2)COCC3)CC1 [cpd 200, cis-4-(6-amino-2-fluoro-9H-purin-9-yl)-N-(6,7-dihydro-4H-pyrano[4,3-d][1,3]thiazol-2-yl)cyclohexanecarboxamide]",24,> 10000,
"CN1CCc2nc(NC(=O)[C@H]3CC[C@@H](n4cnc5c(N)nc(C#C[Si](C)(C)C)nc54)CC3)sc2C1 [cpd 199, cis-4-{6-amino-2-[(trimethylsilyl)ethynyl]-9H-purin-9-yl}-N-(5-methyl-4,5,6,7-tetrahydro[1,3]thiazolo[5,4-c]pyridin-2-yl)cyclohexanecarboxamide]",,> 10000,67
"NC(=O)CN1CCc2nc(NC(=O)[C@H]3CC[C@@H](n4cnc5c(N)nc(Cl)nc54)CC3)sc2C1 [cpd 196, cis-4-(6-amino-2-chloro-9H-purin-9-yl)-N-[5-(2-amino-2-oxoethyl)-4,5,6,7-tetrahydro[1,3]thiazolo[5,4-c]pyridin-2-yl]cyclohexanecarboxamide]",26,> 10000,
"COc1cccc(NC(=O)[C@H]2CC[C@@H](n3cnc4c(N)nc(-c5cccc(C(=O)Nc6ccc(CN7CCC(N(C)C)CC7)cc6)c5)nc43)CC2)c1 [cpd 31, 3-(6-amino-9-{cis-4-[(3-methoxyphenyl)carbamoyl]cyclohexyl}-9H-purin-2-yl)-N-(4-{[4-(dimethylamino)piperidin-1-yl]methyl}phenyl)benzamide]",40,> 10000,
"Nc1nc(Cl)nc2c1ncn2[C@H]1CC[C@@H](C(=O)Nc2ccc(C(=O)NC3CCCCC3)cc2)CC1 [cpd 71, 4-({[cis-4-(6-amino-2-chloro-9H-purin-9-yl)cyclohexyl]carbonyl}amino)-N-cyclohexylbenzamide]",375,2840,
"COc1cccc(NC(=O)[C@H]2CC[C@@H](n3cnc4c(N)nc(C#CCO)nc43)CC2)c1 [cpd 60, cis-4-[6-amino-2-(3-hydroxyprop-1-yn-1-yl)-9H-purin-9-yl]-N-(3-methoxyphenyl)cyclohexanecarboxamide]",854,> 10000,
"COc1cccc(NC(=O)[C@H]2CC[C@@H](n3cnc4c(N)nc(-c5cccc(C(=O)Nc6ccc(CN7CCN(C)CC7)cc6)c5)nc43)CC2)c1 [cpd 30, 3-(6-amino-9-{cis-4-[(3-methoxyphenyl)carbamoyl]cyclohexyl}-9H-purin-2-yl)-N-{4-[(4-methylpiperazin-1-yl)methyl]phenyl}benzamide]",305,> 10000,
"CC(C)(C)OC(=O)N1CCc2nc(NC(=O)[C@H]3CC[C@@H](n4cnc5c(N)nc(Cl)nc54)CC3)sc2C1 [cpd 169, tert-butyl 2-({[cis-4-(6-amino-2-chloro-9H-purin-9-yl)cyclohexyl]carbonyl}amino)-6,7-dihydro[1,3]thiazolo[5,4-c]pyridine-5(4H)-carboxylate]",52,5550,

# Continued, in another order:
IC50 (Δ49N-hChoKα; [1]) [nM],IC50 (hChoKβ FL) [nM],SMILES,IC50 (Δ49N-hChoKα) [nM]
41,> 10000,"COC(=O)Cc1ccc2nc(NC(=O)[C@H]3CC[C@@H](n4cnc5c(N)nc(Cl)nc54)CC3)sc2c1 [cpd 174, methyl [2-({[cis-4-(6-amino-2-chloro-9H-purin-9-yl)cyclohexyl]carbonyl}amino)-1,3-benzothiazol-6-yl]acetate]",
425,> 10000,"COc1cccc(NC(=O)[C@H]2CC[C@@H](n3cnc4c(N)nc(OC)nc43)CC2)c1 [cpd 83, cis-4-(6-amino-2-methoxy-9H-purin-9-yl)-N-(3-methoxyphenyl)cyclohexanecarboxamide]",
34,4020,"Nc1nc(Cl)nc2c1ncn2[C@H]1CC[C@@H](C(=O)Nc2nc3ccc(CC(=O)O)cc3s2)CC1 [cpd 176, [2-({[cis-4-(6-amino-2-chloro-9H-purin-9-yl)cyclohexyl]carbonyl}amino)-1,3-benzothiazol-6-yl]acetic acid]",
478,> 10000,"Cc1csc(NC(=O)[C@H]2CC[C@H](n3cnc4c(N)nc(-c5cccc(C(N)=O)c5)nc43)CC2)n1 [cpd 97, 3-(6-amino-9-{trans-4-[(4-methyl-1,3-thiazol-2-yl)carbamoyl]cyclohexyl}-9H-purin-2-yl)benzamide]",
613,> 10000,"Cc1csc(NC(=O)[C@H]2CC[C@H](n3cnc4c(N)nc(-c5cc[nH]n5)nc43)CC2)n1 [cpd 113, trans-4-[6-amino-2-(1H-pyrazol-3-yl)-9H-purin-9-yl]-N-(4-methyl-1,3-thiazol-2-yl)cyclohexanecarboxamide]",
34,> 10000,"Cc1csc(NC(=O)[C@H]2CC[C@@H](n3cnc4c(N)nc(I)nc43)CC2)n1 [cpd 70, cis-4-(6-amino-2-iodo-9H-purin-9-yl)-N-(4-methyl-1,3-thiazol-2-yl)cyclohexanecarboxamide]",
268,7120,"Cn1c(NC(=O)[C@H]2CC[C@@H](n3cnc4c(N)nc(Cl)nc43)CC2)nc2ccccc21 [cpd 95, cis-4-(6-amino-2-chloro-9H-purin-9-yl)-N-(1-methyl-1H-benzimidazol-2-yl)cyclohexanecarboxamide]",
43,> 10000,"COc1cccc2sc(NC(=O)[C@H]3CC[C@@H](n4cnc5c(N)nc(I)nc54)CC3)nc12 [cpd 116, cis-4-(6-amino-2-iodo-9H-purin-9-yl)-N-(4-methoxy-1,3-benzothiazol-2-yl)cyclohexanecarboxamide]",
61,> 10000,"Nc1nc(Cl)nc2c1ncn2[C@H]1CC[C@@H](C(=O)Nc2nccs2)CC1 [cpd 72, cis-4-(6-amino-2-chloro-9H-purin-9-yl)-N-(1,3-thiazol-2-yl)cyclohexanecarboxamide]",
23,6800,"Nc1nc(Cl)nc2c1ncn2[C@H]1CC[C@@H](C(=O)Nc2nc3ccc(OC(F)F)cc3s2)CC1 [cpd 180, cis-4-(6-amino-2-chloro-9H-purin-9-yl)-N-[6-(difluoromethoxy)-1,3-benzothiazol-2-yl]cyclohexanecarboxamide]",
283,> 10000,"Cc1cccc(NC(=O)[C@H]2CC[C@@H](n3cnc4c(N)nc(Cl)nc43)CC2)c1 [cpd 48, cis-4-(6-amino-2-chloro-9H-purin-9-yl)-N-(3-methylphenyl)cyclohexanecarboxamide]",
274,> 10000,"Cc1csc(NC(=O)[C@H]2CC[C@@H](n3cnc4c(N)nc(-c5cccc(C(N)=O)c5)nc43)CC2)n1 [cpd 96, 3-(6-amino-9-{cis-4-[(4-methyl-1,3-thiazol-2-yl)carbamoyl]cyclohexyl}-9H-purin-2-yl)benzamide]",
120,> 10000,"Cc1csc(NC(=O)[C@H]2CC[C@@H](n3cnc4c(N)nc(-c5cc[nH]n5)nc43)CC2)n1 [cpd 112, cis-4-[6-amino-2-(1H-pyrazol-3-yl)-9H-purin-9-yl]-N-(4-methyl-1,3-thiazol-2-yl)cyclohexanecarboxamide]",
45,> 10000,"Nc1nc(F)nc2c1ncn2[C@H]1CC[C@@H](C(=O)Nc2nc3c(O)cccc3s2)CC1 [cpd 127, cis-4-(6-amino-2-fluoro-9H-purin-9-yl)-N-(4-hydroxy-1,3-benzothiazol-2-yl)cyclohexanecarboxamide]",
60,> 10000,"CN(C)c1ccc2nc(NC(=O)[C@H]3CC[C@@H](n4cnc5c(N)nc(Cl)nc54)CC3)sc2c1 [cpd 165, cis-4-(6-amino-2-chloro-9H-purin-9-yl)-N-[6-(dimethylamino)-1,3-benzothiazol-2-yl]cyclohexanecarboxamide]",
1810,> 10000,"Cc1csc(NC(=O)[C@H]2CC[C@@H](n3cnc4c(N)nccc43)CC2)n1 [cpd 204, cis-4-(4-amino-1H-imidazo[4,5-c]pyridin-1-yl)-N-(4-methyl-1,3-thiazol-2-yl)cyclohexanecarboxamide]",
441,> 10000,"COc1cccc(NC(=O)[C@H]2CC[C@@H](n3cnc4c(N)nc(I)nc43)CC2)c1 [cpd 41, cis-4-(6-amino-2-iodo-9H-purin-9-yl)-N-(3-methoxyphenyl)cyclohexanecarboxamide]",
